Test results published in ChEMBL document CHEMBL3739278, “Synthesis and evaluation of novel N-3-benzimidazolephenylbisamide derivatives for antiproliferative and Hedgehog pathway inhibitory activity” (Medchemcomm, 2015).
pIC50: −log10 of the molar value.

Key:
[1] = Antiproliferative activity against human SW620 cells assessed as cell growth inhibition after 48 hrs by MTT assay; format: functional, cell-based; details: SW-620, 48 h
HT-29 = assay: Antiproliferative activity against human HT-29 cells assessed as cell growth inhibition after 48 hrs by MTT assay; format: functional, cell-based; details: HT-29, 48 h
[2] = Antiproliferative activity against human MGC803 cells assessed as cell growth inhibition after 48 hrs by MTT assay; format: functional, cell-based; details: MGC-803, 48 h
[3] = Antiproliferative activity against human […] cells assessed as cell growth inhibition after 48 hrs by MTT assay; format: functional, cell-based
Sonic hedgehog protein = Sonic hedgehog protein (Mus musculus, UniProt Q62226); assay: Inhibition of hedgehog signalling in mouse NIH3T3-Gli-luc cells after 48 hrs by dual luciferase reporter assay; format: cell-based
Chain of Sonic hedgehog protein (Q62226 25-198 limits assumed): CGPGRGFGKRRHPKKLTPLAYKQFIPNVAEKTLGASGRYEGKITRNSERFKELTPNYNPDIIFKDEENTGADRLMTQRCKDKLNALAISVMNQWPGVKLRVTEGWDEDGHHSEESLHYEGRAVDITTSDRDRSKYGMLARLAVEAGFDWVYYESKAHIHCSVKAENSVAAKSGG

Protein smoothened = Protein smoothened (Homo sapiens, UniProt Q99835); assay: Displacement of boron-dipyrromethene-cyclopamine from human smoothened receptor expressed in HEK293 cells incubated for 4 hrs by hSMO-BC binding assay; format: cell-based
Chain of Protein smoothened (Q99835 whole entry): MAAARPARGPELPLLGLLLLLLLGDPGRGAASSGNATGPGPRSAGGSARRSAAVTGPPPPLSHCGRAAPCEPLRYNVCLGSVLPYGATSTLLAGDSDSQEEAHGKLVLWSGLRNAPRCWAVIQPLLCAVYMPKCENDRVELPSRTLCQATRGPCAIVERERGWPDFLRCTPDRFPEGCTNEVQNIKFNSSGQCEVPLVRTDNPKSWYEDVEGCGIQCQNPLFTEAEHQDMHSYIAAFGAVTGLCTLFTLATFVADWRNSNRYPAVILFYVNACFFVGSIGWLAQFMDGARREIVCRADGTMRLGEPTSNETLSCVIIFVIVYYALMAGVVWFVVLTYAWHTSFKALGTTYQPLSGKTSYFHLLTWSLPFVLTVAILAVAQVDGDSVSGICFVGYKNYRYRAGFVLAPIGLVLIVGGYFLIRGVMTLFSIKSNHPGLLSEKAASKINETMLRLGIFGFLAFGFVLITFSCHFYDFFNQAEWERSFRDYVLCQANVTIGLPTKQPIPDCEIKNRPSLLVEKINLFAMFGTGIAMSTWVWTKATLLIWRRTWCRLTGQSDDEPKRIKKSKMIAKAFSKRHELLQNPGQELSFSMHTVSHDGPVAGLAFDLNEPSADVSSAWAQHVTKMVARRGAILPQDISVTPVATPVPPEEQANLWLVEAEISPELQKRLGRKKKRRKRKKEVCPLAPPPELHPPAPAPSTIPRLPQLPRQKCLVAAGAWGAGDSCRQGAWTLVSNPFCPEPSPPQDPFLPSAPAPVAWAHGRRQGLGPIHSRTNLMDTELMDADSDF

| Structure (SMILES) | pIC50 [1] | pIC50 (HT-29) | pIC50 [2] | pIC50 [3] | pIC50 (Sonic hedgehog protein) | pIC50 (Protein smoothened) |
| --- | --- | --- | --- | --- | --- | --- |
| O=C(NC(=S)Nc1ccc(Cl)c(-c2nc3ccccc3[nH]2)c1)c1ccc(OCc2ccc(Cl)cc2Cl)cc1 | 4.30 | 5.22 | 5.52 | 5.43 |  |  |
| Cc1ccc(NC(=S)NC(=O)c2ccc(OCc3ccc(Cl)c(Cl)c3)cc2)cc1-c1nc2ccccc2[nH]1 | 4.51 | 5.20 | 5.19 | 5.08 |  |  |
| Cc1ccc(NC(=O)NC(=O)c2ccc(OCc3cccc(Cl)c3)cc2)cc1-c1nc2ccccc2[nH]1 | 4.80 | 4.81 | 4.68 | 4.55 |  |  |
| Cc1ccc(NC(=O)NC(=O)c2ccc(OCc3ccccc3Cl)cc2)cc1-c1nc2ccccc2[nH]1 | 4.45 | 5.05 | 4.71 | 4.67 |  |  |
| Cc1ccc(NC(=S)NC(=O)c2ccc(OCc3cccc(Cl)c3Cl)cc2)cc1-c1nc2ccccc2[nH]1 | < 4.00 | 4.20 | < 4.00 | < 4.00 |  |  |
| Cc1ccc(NC(=O)NC(=O)c2ccc(OCc3ccc(Cl)cc3Cl)cc2)cc1-c1nc2ccccc2[nH]1 | 4.91 | 5.58 | 5.56 | 5.59 |  |  |
| Cc1ccc(NC(=O)NC(=O)c2ccc(OCc3cccc(Cl)c3Cl)cc2)cc1-c1nc2ccccc2[nH]1 | 4.38 | 4.31 | < 4.00 | 4.06 |  |  |
| Cc1ccc(NC(=S)NC(=O)c2ccc(OCc3ccccc3Cl)cc2)cc1-c1nc2ccccc2[nH]1 | 4.24 | 4.63 | 4.35 | 4.29 |  |  |
| Cc1ccc(COc2ccc(C(=O)NC(=O)Nc3ccc(C)c(-c4nc5ccccc5[nH]4)c3)cc2)cc1 | 4.58 | 5.29 | 5.37 | 5.20 |  |  |
| Cc1ccc(NC(=O)NC(=O)c2ccc(OCc3ccccc3F)cc2)cc1-c1nc2ccccc2[nH]1 | 5.39 | 6.12 | 5.60 | 5.74 |  |  |
| O=C(NC(=S)Nc1ccc(Cl)c(-c2nc3ccccc3[nH]2)c1)c1ccc(OCc2ccc(C(F)(F)F)cc2)cc1 | 4.19 | 4.89 | 5.27 | 5.11 |  |  |
| Cc1ccc(NC(=S)NC(=O)c2ccc(OCc3ccccc3)cc2)cc1-c1nc2ccccc2[nH]1 | 4.17 | 4.54 | 4.22 | 4.24 |  |  |
| Cc1ccc(NC(=O)NC(=O)c2ccc(OCc3ccc(C(F)(F)F)cc3)cc2)cc1-c1nc2ccccc2[nH]1 | 4.82 | 5.11 | 4.83 | 4.77 |  |  |
| Cc1ccc(NC(=O)NC(=O)c2ccc(OCc3cccc(F)c3)cc2)cc1-c1nc2ccccc2[nH]1 | 4.40 | 4.42 | 4.35 | 4.28 |  |  |
| Cc1ccc(COc2ccc(C(=O)NC(=S)Nc3ccc(C)c(-c4nc5ccccc5[nH]4)c3)cc2)cc1 | 4.22 | 4.85 | 5.30 | 4.95 |  |  |
| O=C(NC(=O)c1ccc(OCc2ccccc2F)cc1)Nc1ccc(Cl)c(-c2nc3ccccc3[nH]2)c1 | 5.53 | 6.23 | 6.92 | 6.06 | 7.60 | 7.72 |

| Structure (SMILES) | pIC50 [1] | pIC50 (HT-29) | pIC50 [2] | pIC50 [3] | pIC50 (Sonic hedgehog protein) | pIC50 (Protein smoothened) |
| --- | --- | --- | --- | --- | --- | --- |
| Cc1ccc(NC(=O)NC(=O)c2ccc(OCc3ccc(Cl)c(Cl)c3)cc2)cc1-c1nc2ccccc2[nH]1 | 5.21 | 5.99 | 5.22 | 5.24 |  |  |
| Cc1ccc(NC(=S)NC(=O)c2ccc(OCc3cccc(C(F)(F)F)c3)cc2)cc1-c1nc2ccccc2[nH]1 | 4.81 | 5.09 | 5.28 | 5.22 |  |  |
| Cc1ccc(COc2ccc(C(=O)NC(=O)Nc3ccc(Cl)c(-c4nc5ccccc5[nH]4)c3)cc2)cc1 | 4.64 | 5.53 | 5.41 | 5.50 |  |  |
| Cc1ccc(NC(=S)NC(=O)c2ccc(OCc3cccc(F)c3)cc2)cc1-c1nc2ccccc2[nH]1 | < 4.00 | 4.26 | < 4.00 | 4.06 |  |  |
| O=C(NC(=S)Nc1ccc(Cl)c(-c2nc3ccccc3[nH]2)c1)c1ccc(OCc2ccc(Cl)c(Cl)c2)cc1 | 4.60 | 5.31 | 5.29 | 5.34 |  |  |
| Cc1ccc(NC(=S)NC(=O)c2ccc(OCc3ccc(C(F)(F)F)cc3)cc2)cc1-c1nc2ccccc2[nH]1 | 4.14 | 4.76 | 5.19 | 4.99 |  |  |
| Cc1ccc(NC(=O)NC(=O)c2ccc(OCc3cccc(C(F)(F)F)c3)cc2)cc1-c1nc2ccccc2[nH]1 | 5.02 | 5.45 | 4.88 | 5.02 |  |  |
| O=C(NC(=O)c1ccc(OCc2ccc(F)cc2)cc1)Nc1ccc(Cl)c(-c2nc3ccccc3[nH]2)c1 | 4.47 | 6.14 | 7.21 | 6.46 | 7.49 | 7.38 |
| Cc1ccc(NC(=O)NC(=O)c2ccc(OCc3ccc(F)cc3)cc2)cc1-c1nc2ccccc2[nH]1 | 4.45 | 6.01 | 6.80 | 6.62 | 7.43 |  |
| Cc1ccc(NC(=S)NC(=O)c2ccc(OCc3ccc(Cl)cc3Cl)cc2)cc1-c1nc2ccccc2[nH]1 | 4.24 | 4.94 | 5.46 | 5.28 |  |  |
| Cc1ccc(NC(=O)NC(=O)c2ccc(OCc3ccccc3)cc2)cc1-c1nc2ccccc2[nH]1 | 4.52 | 4.79 | 4.40 | 4.45 |  |  |
| Cc1ccc(NC(=S)NC(=O)c2ccc(OCc3cccc(Cl)c3)cc2)cc1-c1nc2ccccc2[nH]1 | < 4.00 | 4.45 | 4.29 | 4.36 |  |  |
| COc1cc(C(=O)NC(=S)Nc2cccc(NC(=O)c3ccccc3)c2)cc(OC)c1OC | 4.67 | 5.18 | 5.06 | 4.86 | 6.19 | 6.55 |
| Cc1ccc(NC(=S)NC(=O)c2ccc(OCc3ccccc3F)cc2)cc1-c1nc2ccccc2[nH]1 | 5.19 | 5.73 | 5.51 | 5.62 | 6.80 |  |
| Cc1ccc(NC(=S)NC(=O)c2ccc(OCc3ccc(F)cc3)cc2)cc1-c1nc2ccccc2[nH]1 | 4.39 | 5.72 | 5.55 | 5.37 |  |  |
| CS(=O)(=O)c1ccc(C(=O)Nc2ccc(Cl)c(-c3ccccn3)c2)c(Cl)c1 [VISMODEGIB] | 4.96 | 5.97 | 5.62 | 5.54 | 7.89 |  |
